What all share (experiment): NCI anticancer screen, dose series, 48 h
In experiment [1] the test system is OVCAR-4 ovarian.
Experiment [2] concerns MALME-3M melanoma.
In experiment [3] the test system is HOP-92 NSCLC.
Experiment [4] relates to EKVX NSCLC.
Experiment [5] relates to 786-0 renal.
Experiment [6] concerns SNB-75 CNS.
Experiment [7] relates to SF-295 CNS.
Experiment [8] deals with BT-549 breast.
The subject of experiment [9] is PC-3 prostate.
The test system of experiment [10] is MCF7 breast.

Here are results for 34 compounds from PubChem BioAssay (NCI).

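Values below derive from 48-hour exposures of cells grown in 96-well plates, with endpoints linearly interpolated between the two concentrations bracketing the appropriate inhibition level. GI50 marks 50% less growth. TGI is the concentration that stops growth completely.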 Bounds are passed on as bounds.

For the compound `CC(C)(C)C(=CS(=O)/N=C/c1ccccc1)C(C)(C)C` (stereo unspecified), the TGI was 70.9 µM in experiment [1]; 75.9 µM in experiment [2]; 51.2 µM in [3]; over 100 µM in [4]; over 100 µM in experiment [5]; 63.2 µM in experiment [6].

For `CCCC(=O)N[C@H]1C2C3CC4C5CC(C42)C1(C)C53` (stereo partly specified), the TGI in experiment [1], in experiment [2], in experiment [3], in [4], in experiment [5] and in [7] was over 100 µM throughout. This compound registered a TGI in experiment [6] of over 100 µM.

As to `CC(C)CCCC(C)[C@H]1CCC2[C@@H]3CCC4Nc5c(cnn5-c5ccccc5)C[C@]4(C)C3CC[C@@]21C` (stereo partly specified), the TGI in experiment [1] was 80.1 µM; in experiment [2] it was over 100 µM; in experiment [4], 79.8 µM; in experiment [5], over 100 µM; in [7] it was 7.46 µM; in [6], 25.7 µM.

With `C[Si](C)(C)/C=C\CCO`, the TGI in [2], in experiment [3], in experiment [4], in [5], in experiment [7] and in experiment [6] was over 100 µM throughout.

Regarding `CC(=O)O[C@]1(C)OC(=O)[C@@H](CC(C)C)N1[N+](=O)[O-]`, the TGI in experiment [1], in [2], in experiment [4], in experiment [5], in [7] and in experiment [6] was over 100 µM throughout.

In the case of `Cc1c(-c2ccnc(N)n2)c2c(n1Cc1ccccc1)C(=O)c1ccccc1C2=O`, the GI50 in [1] is 20.7 µM; in experiment [8], 2.99 µM; in experiment [3] it was over 100 µM; in experiment [4] it was 7.11 µM; in [5], 5.02 µM; in experiment [7] it was 3.12 µM. Further, the GI50 in [9] is 49.1 µM. Also, the TGI in experiment [1] was over 100 µM; in [8], 8.4 µM; in experiment [3], over 100 µM; in [4], 41.2 µM; in experiment [5], 71 µM; in experiment [7], 15 µM. Besides, the TGI in [9] was over 100 µM.

Consider `CC(=O)[O-].[Mn+3].[O-]c1ccccc1C=NCCNCCN=Cc1ccccc1[O-]`, for which the GI50 in experiment [1] is over 100 µM; in experiment [2], 58.1 µM; in [5], over 100 µM; in experiment [7], over 100 µM; in experiment [6] it was over 100 µM. The TGI in experiment [1], in [2], in [5], in experiment [7] and in experiment [6] was over 100 µM each time.

For `O=c1ncccn1C1OC(CO)C(O)C1O` (stereo unspecified), the TGI in [1], in [2], in [3], in experiment [4], in experiment [5] and in experiment [6] was over 100 µM each time.

For `Cc1cc(N=C2C=C(Br)C(=O)C(Br)=C2)cc(CN(CC(=O)O)CC(=O)O)c1O`, the TGI in experiment [1], in [2], in experiment [4], in experiment [5], in experiment [7] and in [9] was over 100 µM in each case. Moreover, the TGI in experiment [10] and in [6] was over 100 µM throughout.

As for `CN1CCc2c1nc(-c1ccc(Cl)cc1)c1c2N(C)CC1`, the TGI is over 100 µM in experiment [1]; over 100 µM in [2]; over 100 µM in [4]; over 100 µM in experiment [5]; 31.1 µM in [7]; 67.7 µM in experiment [6].

Take `CC(=O)OCC(=O)[C@@]12OC(C)(C)O[C@@H]1C[C@H]1[C@@H]3CC(C=O)=C4C=C(OCCCl)CC[C@]4(C)[C@@]3(F)[C@@H](O)C[C@@]12C`: the TGI in [1] was over 100 µM; in [2], 70.3 µM; in [3], 90.2 µM; in experiment [4], over 100 µM; in experiment [5], over 100 µM; in [7], 46.4 µM.

On to `NNC(=O)C(=O)N/N=C1\CCC(=O)CC1C(=O)CCC(=O)Nc1ccc(Cl)cc1` (stereo unspecified), for which the TGI in [1], in [2], in experiment [4], in [5], in [7] and in [6] was over 100 µM each time.

Consider `N.N.N.N.N.O=[N+]([O-])[O-].[Co+3].[O-][Cl+3]([O-])([O-])[O-]`, for which the GI50 in experiment [1], in [2], in experiment [3], in experiment [4], in experiment [5] and in experiment [7] was over 100 µM throughout. The GI50 in experiment [6] is 29.6 µM. The TGI in experiment [1], in experiment [2], in experiment [3], in experiment [4], in experiment [5] and in [7] was over 100 µM in each case. In [6], this compound gave a TGI of over 100 µM.

For `C[C@]12CC[C@H](O)CC1=CC[C@@H]1C2CC[C@]2(C)Nc3c(cnn3-c3ccccc3)CC12` (stereo partly specified), the TGI in experiment [1] was 36.6 µM; in experiment [2], 36 µM; in experiment [4] it was 57.7 µM; in experiment [5] it was 7.16 µM; in experiment [7], 1.87 µM; in experiment [6] it was 9.12 µM.

Regarding `N/N=C1\C(=O)N(c2ccc(Cl)cc2Cl)C(=O)C(=O)C1c1nc2ccccc2o1` (stereo unspecified), the TGI in experiment [1], in experiment [2], in experiment [3], in experiment [4], in experiment [5] and in experiment [7] was over 100 µM each time. In experiment [6], this compound yielded a TGI of over 100 µM.

Regarding `CC(C)OP(=O)(OC(C)C)/C(N)=N/Nc1ccc([N+](=O)[O-])cc1`, the TGI in experiment [1], in [2], in experiment [3], in [4], in [5] and in experiment [6] was over 100 µM each time.

For the compound `C#Cc1c(C)c(/C=C/C(C)=C/C(=O)OC)n(C)c1C`, the TGI is over 100 µM in [1]; over 100 µM in [2]; 85.1 µM in experiment [3]; over 100 µM in experiment [4]; over 100 µM in experiment [5]; over 100 µM in experiment [7].

Take `Cc1ccc(S(=O)(=O)c2ccccc2[N+](=O)[O-])cc1`: the TGI in [1], in experiment [2], in experiment [4], in experiment [5], in experiment [7] and in experiment [6] was over 100 µM each time.

In the case of `CN(C)c1nc2ccccc2c2c1c1c(n2Cc2ccccc2)-c2ccccc2C1=O`, the GI50 in experiment [1] was 31.3 µM; in experiment [8], over 100 µM; in experiment [2] it was over 100 µM; in [3], 13 µM; in experiment [4], over 100 µM; in experiment [5], over 100 µM. Moreover, the GI50 in experiment [7] is over 100 µM; in experiment [10], 71.4 µM; in experiment [6], 54.2 µM. Besides, the TGI in [1], in experiment [8], in experiment [2], in experiment [3], in [4] and in experiment [5] was over 100 µM in each case. In addition, the TGI in [7], in experiment [10] and in experiment [6] was over 100 µM in each case.

Regarding `O=C(O)CCNCCCCNCCC(=O)O`, the TGI in experiment [1], in experiment [2], in experiment [3], in experiment [4], in experiment [5] and in [7] was over 100 µM each time. Besides, the TGI in experiment [6] was over 100 µM.

`C=CCO/N=C(\OC(=O)c1ccc([N+](=O)[O-])cc1)c1ccccc1`: the TGI in experiment [1], in experiment [2], in experiment [3], in experiment [4], in experiment [5] and in [7] was over 100 µM in each case. The compound further yielded a TGI in experiment [6] of over 100 µM.

For the compound `COc1ccc(C(=O)C(CC2C(=O)NC(=O)NC2=O)c2ccc(OC)cc2)cc1` (stereo unspecified), the TGI in experiment [1], in experiment [2], in [4], in experiment [5], in experiment [7] and in experiment [6] was over 100 µM each time.

For `c1ccc2c(c1)oc1ccc3nsnc3c12`, the TGI in experiment [1], in experiment [2], in experiment [3], in [4], in experiment [5] and in [7] was over 100 µM each time. In experiment [6], the TGI is over 100 µM.

Consider `COc1ncnc(S(=O)(=O)c2ccc(N=C3C(=O)N(CN4CCN(c5cc6c(cc5F)c(=O)c(C(=O)O)cn6C5CC5)CC4)c4ccc(Cl)cc43)cc2)c1OC`, for which the GI50 is over 50 µM in [3]; 1.24 µM in [4]; 33.7 µM in experiment [5]; over 50 µM in [7]; 34.9 µM in experiment [9]; 34.1 µM in experiment [10]. Besides, the TGI in experiment [3], in experiment [4], in experiment [5], in experiment [7], in [9] and in [10] was over 50 µM in each case.

Regarding `Cc1c2c(c(C)c3c4c(oc13)CCCC4)C=NCC2`, the TGI in [1] was 54.8 µM; in experiment [8] it was 33.7 µM; in [2], 32.6 µM; in experiment [3], 25.4 µM; in [4], 32 µM; in experiment [5], over 100 µM. Besides, the TGI in [7] is 31.7 µM; in experiment [10] it was 30.4 µM; in experiment [6], 32.4 µM.

For `C=CCC1=C(C)C[C@@H]2CCC(=O)C=C12`, the TGI in [1], in experiment [2], in experiment [3], in experiment [4], in experiment [5] and in [7] was over 100 µM in each case. In [6], this compound registered a TGI of over 100 µM.

As to `COC(=O)c1c2c(cc3c1CC1(Cc4cc5c(c(C(C)=O)c4C1)CCC5)C3)CCC2` (stereo unspecified), the TGI in [1] is over 100 µM; in experiment [2], over 100 µM; in experiment [3] it was over 100 µM; in experiment [5] it was over 100 µM; in experiment [7], 99.3 µM; in experiment [6], 74.2 µM.

In the case of `Cc1cc(N(CCC#N)CCC#N)ccc1N=Nc1ccc(Br)cc1`, the TGI was over 100 µM in experiment [1]; over 100 µM in experiment [2]; over 74.4 µM in experiment [4]; 38.3 µM in experiment [5]; over 51 µM in experiment [7].

With `Cc1cccc(C)c1NC(=O)CCc1nc(=S)[nH][nH]1`, the TGI in [1], in experiment [2], in experiment [3], in experiment [4], in experiment [5] and in experiment [6] was over 100 µM throughout.

In the case of `CC1=NN(C(=O)c2ccc(Cl)cc2)C(=O)/C1=C/c1ccccc1O`, the TGI in experiment [1], in experiment [2], in [3], in experiment [4], in experiment [5] and in experiment [7] was over 100 µM in each case.

Consider `CCOC(=O)N1CCc2cc(OC)c(OC)cc2/C1=C\c1ccc(OC)c(OC)c1`, for which the TGI was 57.1 µM in experiment [2]; 56.1 µM in [3]; 89.2 µM in [4]; 52.1 µM in experiment [5]; 61.2 µM in [7]; 79.3 µM in [6].

Turning to `COC(=O)CC(NC(=O)OCc1ccccc1)C(C(=O)OCc1ccccc1)C(C)(OC)OC` (stereo unspecified), the TGI was over 100 µM in [1]; 80.9 µM in experiment [2]; over 100 µM in [4]; over 100 µM in [5]; over 100 µM in experiment [7]; 64 µM in experiment [6].

Turning to `O=C1C=CC(=O)c2c(O)c(NCCOCCO)c(Cl)c(O)c21`, the TGI in experiment [1] came out at 5.91 µM; in experiment [2], 8.43 µM; in [3] it was 39.4 µM; in [5] it was 17.2 µM; in experiment [7] it was 24.1 µM; in experiment [6] it was 30.9 µM.

Consider `CC1CCSC(N(C(=O)N(C)c2ccccc2)c2ccccc2)=N1` (stereo unspecified), for which the TGI in experiment [2], in experiment [4], in experiment [5], in experiment [7] and in experiment [6] was over 100 µM in each case.
